Reference: US7989446B2, “4-amino 5-cyanopyrimidine derivatives” (Otsuka Pharmaceutical Co., Ltd., priority 2004, dated 2011)
Counter-ions that a name gives are not always drawn.

Experiments:
[1] = molecular target: T1, adenosine A2a receptor (Human) (Homo sapiens, UniProt P29274); assay: c-AMP generating action in cell expressing adenosine A2a receptor; assay type: cell-based; conditions: HEK293 cell expressing human A2a; 100% = c-AMP caused by 1 μM CGS-21680; read-out: A2a Agonistic Action (EC50)
T1 construct: host or cells: HEK293
Procedure: (1) c-AMP Generating Action in Cell Expressing Adenosine A2a Receptor
The test was carried out as mentioned below with reference to the method disclosed in the reference (Klotz k. N. et al., Naunyn-Schmiedeberg's Arch. Pharmacol., (1998) 357, 1-9; Shryock J. C. et al., Molecular Pharmacology, (1998) 53, 886-893).
As to the cell, HEK293 cell expressing adenosine A2a receptor (Human) (PerkinElmer Life Sciences, Code No. RBHA2AC) was used.
As to the culture medium, Dulbecco's modified Eagles medium (DMEM) including 10% FBS (Fetal bovine serum) and 1 mM of sodium pyruvate was used.
The cell was placed on 96 well plate (1×10^5/well), and cultured overnight. After removing off the supernatant, to each well, 0.1 ml of DMEM (without FBS) containing 20 mM HEPES, 0.1 mM of IBMX (3-isobutyl-1-methylxanthine) and 2 unit/mL adenosine deaminase was added, and they were incubated at 37° C. for 30 minutes. To each well, 0.1 ml of the culture medium including the DMSO solution of the test compound in an appropriate concentration was added and they were incubated for additional 30 minutes. After removing off the supernatant, the cytolytic solution was added to quench the reaction. The amount of c-AMP in each well was measured by using the c-AMP enzyme immunoassay (EIA) system (Amersham Biosciences, Code No. RPN225).
The same assay was repeated using CGS-21680 (2-p-carboxyethyl)phenethylamino-5′-N-ethylcarboxamidoadenosine hydrochloride, (Sigma, code C141) as reference compound. The amount of resultant c-AMP in the medium, caused by 1 μM of reference compound, was defined to be 100%. A concentration of assayed compound in the medium, producing 50% c-AMP amounts, was calculated to be EC50 value.

[2] = system: Intraocular Pressure in Rabbit; assay: Measuring test for intraocular pressure in rabbit; assay type: in vivo, Female New Zealand white rabbits; conditions: mean±standard error
Procedure: (3) Measuring Test for Intraocular Pressure in Rabbit
The test compounds were dissolved in 10 mM of phosphate buffer (pH 7.5) (hereinafter, referred to as “vehicle of ophthalmic preparation”), and they were instilled in a given concentration. In addition, the compounds insoluble in that concentration was used as a suspension. Female New Zealand white rabbits (KITAYAMA LABES Co., Ltd.) whose weights were 2.0-4.0 kg were used.
The measurement of the intraocular pressure was carried out using Pneumatonometer (Model 30 Classic, Mentor company) without anesthesia. In addition, before the measurement of the intraocular pressure, the surface anesthesia with 0.4% oxybuprocaine hydrochloride (“Benoxil” 0.4% ophthalmic solution, Santen Pharmaceutical Co., Ltd.) was carried out.
The animals whose intraocular pressure was stable before instillation were selected, and these animals were divided to every 4 animal in each one group, 50 μL of eye drops including each the test compound was administered to one-sided eye and vehicle was administered to contralateral eye as the control eye. The measurement of intraocular pressure was carried out before instillation and after 0.5, 1, 2, 3, 4 and 6 hours from instillation. The effect on the intraocular pressure was shown as the difference from pre-instillation (ΔIOP, mmHg, mean±standard error). The following Tables 14 and 15 show the results of Control Compounds A and B used as 1% suspensions which are the same as in the pharmacological test (1).
The animals were pretreated as mentioned above, and among them animals whose intraocular pressure was stable before instillation were selected, and these animals were divided to every 5 to 8 animal in each one group. Every two group was used for each of the test compounds. The test compound was administered unilaterally to the eye of the test group rabbit and the intraocular pressure was measured. The vehicle was administered unilaterally to the eye of the control group rabbit and the intraocular pressure was measured. As mentioned above, the measurement of intraocular pressure was carried out before instillation and after 0.5, 1, 2, 3, 4 and 6 hours from instillation, and the effect on the intraocular pressure was shown as the difference from pre-instillation (ΔIOP, mmHg, mean±standard error).

[3] = 0.03% ophthalmic solution, rabbit, instillation, 0.5 hr after instillation, difference from pre-instillation
[4] = 0.03% ophthalmic solution, rabbit, instillation, 1 hr after instillation, difference from pre-instillation
[5] = 0.03% ophthalmic solution, rabbit, instillation, 2 hr after instillation, difference from pre-instillation
[6] = 0.03% ophthalmic solution, rabbit, instillation, 3 hr after instillation, difference from pre-instillation
[7] = 0.03% ophthalmic solution, rabbit, instillation, 4 hr after instillation, difference from pre-instillation
[8] = 0.03% ophthalmic solution, rabbit, instillation, 6 hr after instillation, difference from pre-instillation

T1 sequence (P29274 whole entry): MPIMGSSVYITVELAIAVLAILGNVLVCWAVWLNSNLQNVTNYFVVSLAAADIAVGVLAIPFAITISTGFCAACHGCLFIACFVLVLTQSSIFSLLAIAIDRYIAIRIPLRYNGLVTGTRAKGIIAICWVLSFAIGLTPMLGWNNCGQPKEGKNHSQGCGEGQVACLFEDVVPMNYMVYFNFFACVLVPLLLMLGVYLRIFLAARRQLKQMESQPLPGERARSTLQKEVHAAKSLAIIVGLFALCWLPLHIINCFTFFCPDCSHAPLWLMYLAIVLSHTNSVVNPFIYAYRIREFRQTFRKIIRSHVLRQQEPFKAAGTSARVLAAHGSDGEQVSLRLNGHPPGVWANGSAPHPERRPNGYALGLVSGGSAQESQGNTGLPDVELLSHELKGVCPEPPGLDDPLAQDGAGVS

EC50 [1] [nM] | SMILES | ΔIOP (mmHg) [2, 3] [mmHg] | ΔIOP (mmHg) [2, 4] [mmHg] | ΔIOP (mmHg) [2, 5] [mmHg] | ΔIOP (mmHg) [2, 6] [mmHg] | ΔIOP (mmHg) [2, 7] [mmHg] | ΔIOP (mmHg) [2, 8] [mmHg] | further results
6 | CC(=O)Nc1ccc(-c2nc(SCc3cccc(CCC(=O)N4CCN(CCN5CCOCC5)CC4)n3)nc(N)c2C#N)cc1.Cl [Example 78, N-{4-[6-amino-5-cyano-2-(6-{3-[4-(2-morpholin-4-ylethyl)piperazin-1-yl]-3-oxopropyl}pyridin-2-ylmethylsulfanyl)pyrimidin-4-yl]phenyl}acetamide hydrochloride] | 0.6 ± 0.5 | −3.3 ± 0.4 | −4.4 ± 0.6 | −4.3 ± 0.9 | −5.4 ± 0.7 | −3.2 ± 0.9 | 
3.4 | CC(=O)Nc1ccc(-c2nc(SCc3cccc(CCC(=O)NCCN(C)C)n3)nc(N)c2C#N)cc1.Cl [Example 61, 3-{6-[4-(4-acetylaminophenyl)-6-amino-5-cyanopyrimidin-2-ylsulfanylmethyl]pyridin-2-yl}-N-(2-dimethylaminoethyl)-propionamide hydrochloride] | −0.5 ± 0.4 | −4.2 ± 0.6 | −4.5 ± 0.7 | −4.8 ± 0.7 | −4.4 ± 0.7 | −1.2 ± 0.8 | 
6.8 | CC(=O)Nc1ccc(-c2nc(SCc3cccc(CCC(=O)N(C)C4CCN(C)CC4)n3)nc(N)c2C#N)cc1.Cl [Example 67, 3-{6-[4-(4-acetylaminophenyl)-6-amino-5-cyanopyrimidin-2-ylsulfanylmethyl]pyridin-2-yl}-N-methyl-N-(1-methylpiperidin-4-yl)propionamide hydrochloride] | −1.1 ± 1.0 | −5.3 ± 0.7 | −4.6 ± 0.7 | −4.6 ± 0.9 | −4.2 ± 0.7 | −2.0 ± 0.7 | 
13.6 | CCN1CCN(CC2CN(C(=O)CCc3cccc(CSc4nc(N)c(C#N)c(-c5ccc(NC(C)=O)cc5)n4)n3)CCO2)CC1.Cl (centres unmarked) [Example 72, N-{4-[6-amino-5-cyano-2-(6-{3-[2-(4-ethyl-piperazin-1-ylmethyl)morpholin-4-yl]-3-oxopropyl}pyridin-2-ylmethylsulfanyl)pyrimidin-4-yl]phenyl}acetamide hydrochloride] | −1.9 ± 0.6 | −5.3 ± 0.6 | −4.7 ± 0.6 | −5.0 ± 0.7 | −4.0 ± 1.0 | −1.9 ± 0.9 | 
5.2 | CCN(CC)CCNC(=O)CCc1cccc(CSc2nc(N)c(C#N)c(-c3ccc(NC(C)=O)cc3)n2)n1.Cl [Example 66, 3-{6-[4-(4-acetylaminophenyl)-6-amino-5-cyanopyrimidin-2-ylsulfanylmethyl]pyridin-2-yl}-N-(2-diethylaminoethyl)propionamide hydrochloride salt] | −1.3 ± 0.9 | −4.0 ± 0.6 | −5.5 ± 0.7 | −5.0 ± 0.5 | −3.7 ± 0.5 | −1.8 ± 0.5 | 
2.4 | CC(=O)Nc1ccc(-c2nc(SCc3cccc(CCC(=O)N4CCCN(C)CC4)n3)nc(N)c2C#N)cc1.Cl [Example 80, N-[4-(6-amino-5-cyano-2-{6-[3-(4-methyl-[1,4]diazepan-1-yl)-3-oxopropyl]pyridin-2-ylmethyl-sulfanyl}pyrimidin-4-yl)phenyl]acetamide hydrochloride] | −0.9 ± 1.3 | −5.0 ± 1.0 | −5.9 ± 0.7 | −4.9 ± 0.5 | −5.0 ± 0.8 | −1.8 ± 0.8 | 
7 | CC(=O)Nc1ccc(-c2nc(SCc3cccc(CCC(=O)N4CCC(N5CCCCC5)CC4)n3)nc(N)c2C#N)cc1.Cl [Example 69, N-(4-{6-amino-2-[6-(3-[1,4′]bipiperidinyl-1′-yl-3-oxopropyl)pyridin-2-ylmethylsulfanyl]-5-cyanopyrimidin-4-yl}phenyl)acetamide hydrochloride] |  |  |  |  |  |  | ΔIOP (mmHg) ([2]; 0.01% ophthalmic solution, test group, 0.5 hr): −1.5 ± 1.0 mmHg; ΔIOP (mmHg) ([2]; 0.01% ophthalmic solution, test group, 1 hr): −4.9 ± 0.7 mmHg; ΔIOP (mmHg) ([2]; 0.01% ophthalmic solution, test group, 2 hr): −3.6 ± 0.4 mmHg; ΔIOP (mmHg) ([2]; 0.01% ophthalmic solution, test group, 3 hr): −3.8 ± 0.7 mmHg; ΔIOP (mmHg) ([2]; 0.01% ophthalmic solution, test group, 4 hr): −2.6 ± 1.0 mmHg; ΔIOP (mmHg) ([2]; 0.01% ophthalmic solution, test group, 6 hr): 0.5 ± 0.9 mmHg
7.5 | CCN(CC)C1CCN(C(=O)CCc2cccc(CSc3nc(N)c(C#N)c(-c4ccc(NC(C)=O)cc4)n3)n2)CC1 [Example 68, N-[4-(6-amino-5-cyano-2-{6-[3-(4-diethylaminopiperidin-1-yl)-3-oxopropyl]pyridin-2-yl-methylsulfanyl}pyrimidin-4-yl)phenyl]acetamide hydrochloride salt] |  |  |  |  |  |  | 
5.3 | CC(=O)Nc1ccc(-c2nc(SCc3cccc(CCCCC(=O)N4CCN(C)CC4)n3)nc(N)c2C#N)cc1 [Example 54, N-[4-(6-amino-5-cyano-2-{6-[5-(4-methylpiperazin-1-yl)-5-oxopentyl]pyridin-2-ylmethyl-sulfanyl}pyrimidin-4-yl)phenyl]acetamide] |  |  |  |  |  |  | 
13.5 | COC(=O)Nc1ccc(-c2nc(SCc3cccc(C)n3)nc(N)c2C#N)cc1 [Example 13, methyl {4-[6-amino-5-cyano-2-(6-methylpyridin-2-ylmethylsulfanyl)pyrimidin-4-yl]phenyl}-carbamate] |  |  |  |  |  |  | 
29.1 | CC(=O)Nc1ccc(-c2nc(SCc3cccc(C=CC(=O)N4CCN(C)CC4)n3)nc(N)c2C#N)cc1 [Example 48, N-[4-(6-amino-5-cyano-2-{6-[3-(4-methylpiperazin-1-yl)-3-oxopropenyl]pyridin-2-ylmethylsulfanyl}pyrimidin-4-yl)-phenyl]acetamide] |  |  |  |  |  |  | 
3.4 | CCC(=O)Nc1ccc(-c2nc(SCc3cccc(CCC(=O)N4CCN(C)CC4)n3)nc(N)c2C#N)cc1 [Example 57, N-[4-(6-amino-5-cyano-2-{6-[3-(4-methylpiperazin-1-yl)-3-oxopropyl]pyridin-2-ylmethylsulfanyl}pyrimidin-4-yl)phenyl]propionamide] |  |  |  |  |  |  | 
395 | CCCC(=O)Nc1ccc(-c2nc(SCc3cccc(C)n3)nc(N)c2C#N)cc1 [Example 11, N-{4-[6-amino-5-cyano-2-(6-methylpyridin-2-ylmethylsulfanyl)pyrimidin-4-yl]phenyl}butylamide] |  |  |  |  |  |  | 
2.8 | CC(=O)Nc1ccc(-c2nc(SCc3cccc(CCC(=O)NCCN)n3)nc(N)c2C#N)cc1 [Example 60, 3-{6-[4-(4-acetylaminophenyl)-6-amino-5-cyanopyrimidin-2-ylsulfanylmethyl]pyridin-2-yl}-N-(2-aminoethyl)propionamide hydrochloride] |  |  |  |  |  |  | 
